In patent US11957766B2, “HNQO1-activatable fluorescent probe for imaging cancer cells in-vitro and in-vivo” (Texas Tech University System, priority 2019, dated 2024):

Assays:
[1] = NIR-ASM tolerability and toxicity in vivo; design: species or system CD1 mice; details: 5 mg/kg five times a week for five weeks
Description: Assessment of NIR-ASM biocompatibility. Inspired by the excellent photophysical properties of NIR-ASM in monitoring the NQO1 activity in vitro, the inventors determined the biocompatibility of NIR-ASM both in vitro and in vivo before using for endogenous applications. […] Further, to evaluate NIR-ASM tolerability and toxicity in vivo, CD1 mice were grouped for the administration of vehicle (PEG:H2O:EtOH) alone or 5 mg/kg of NIR-ASM five times a week for five weeks. The average mouse weights were monitored as a surrogate marker to the toxicity.
Hematoxylin and eosin (H&E) staining. The hematoxylin and eosin staining were performed as described previously. Briefly, freshly dissected tissues were snap freeze and store at −20° C. for overnight. Frozen tissues were cut into […] slices, the sections were stained in Mayer's Hematoxylin and Eosin solution. Finally, the sections were dehydrated and mounted with Permount in a fume hood. The results were analyzed under a phase-contrast Olympus microscope (Olympus America Inc).

A549, H460 cells = experiment: Fluorescence microscopy of NIR-ASM in NQO1 expressing cancer cells; assay type: cell-based, human
Description: Detection of NQO1 in live cells. Inspired by the excellent biocompatibility, the inventors investigated its performance in both NQO1 expressing cancer cells (A549, H460) and NQO1 non-expressing normal cells (IMR90, HUVEC). All cells were incubated with NIR-ASM (10 μM) for 60 min, washed with PBS and were imaged under a confocal microscope after counterstaining the nuclei with Hoechst 33342 (FIG. 12A). […] The higher expression of NQO1 protein in A549 and H460 cells and its absence in normal cells, IMR90 and HUVEC as found with western blot analysis correlated with the probe reactivity in cells (FIG. 12B). […] Cell sorting using flow cytometry is a well-established technology in clinical diagnostics and biomedical research. To assess the applicability of the NIR-ASM to rapidly detect and quantify in both cancer and normal cells based on NQO1 expression, the probe was incubated with cell suspensions for 60 min, and about 1×10^4 cells were analyzed on a flow cytometer.
Fluorescence imaging. Both cancer and normal cells were seeded into 6-well plates and cultured overnight in respective media at 37° C. Cells were treated with 10 μM NIR-ASM and incubated at 37° C. for 60 min. They were then treated with nuclear stain Hoechst 33342 for 5 min. Finally, the medium was replaced with PBS and the live cells were imaged using a multiphoton confocal fluorescence microscope (λex/em=488/644 nm). […]

[2] = tested on: NQO1-negative MDA-MB-231 cells; experiment: NIR-ASM in NQO1-negative control MDA-MB-231 cells; assay type: cell-based, human; details: microscopy and flow cytometry
Description: (§1) Chemical and genetic approaches confirm the specificity of NIR-ASM for NQO1 in live tumor cells. A fluorescence probe with high sensitivity, simple operation, and excellent specificity will be an asset for the detection of NQO1 in situ. To assess the substrate selectivity of NIR-ASM for NQO1, both A549 and H460 cells were pretreated with 100 nM of NQO1 inhibitor ES936 for 6 h, before incubating with 10 μM NIR-ASM. […] The effect of ES936 on endogenous NQO1 activity and subsequent reactivity with NIR-ASM was also determined by flow cytometry. […] The presence of NQO1 protein in the transfected MDA-MB-231 cells and its absence in the untransfected control was confirmed by immunoblotting (FIG. 13E). Subsequently, the NQO1-negative and positive MDA-MB-231 cell lines were incubated with NIR-ASM and analyzed by fluorescence microscopy and flow cytometry for activation of the probe.
Fluorescence imaging. Both cancer and normal cells were seeded into 6-well plates and cultured overnight in respective media at 37° C. […] Finally, the medium was replaced with PBS and the live cells were imaged using a multiphoton confocal fluorescence microscope (λex/em=488/644 nm). […]
Flow cytometry analysis. The endogenous NQO1 activity of cancer cells and normal cells was determined by flow cytometry after NIR-ASM exposure. […] About 1×10^4 cells were analyzed by flow cytometry (λex=488 nm).

[3] = tested on: human NQO1 transfected MDA-MB-231 cells; experiment: NIR-ASM in NQO1 gene transfected MDA-MB-231 cells; assay type: cell-based; details: microscopy and flow cytometry
Description: as §1
NQO1 plasmid transfection. Cells were seeded at 60% confluence in six-well plates 16 h before transfection with the desired plasmids. Transfections were carried using a plasmid expressing wild-type NQO1 (pCDNA3 NQO1-Flag, addgene, 61729) and X-tremeGENE DNA transfection reagent (Roche) according to manufacturer instructions. One μg DNA was used in each transfection and cell extracts were prepared 24 h post-transfection to confirm NQO1 protein expression by Western blotting.

hNQO1 in T98G cells = experiment: siRNA knockdown of NQO1 and NQ-DCP activation; assay type: cell-based, human; details: compared with a siRNA control, 10 μM probe
Description: Evaluation of Specificity in Cancer Cells. To show the substrate selectivity of NQ-DCP for hNQO1, T98G cells were pretreated with 100 nM of NQO1 inhibitor ES936 for 6 h and incubated 10 μM of NQ-DCP.
Knockdown of NQO1 by Small Interfering RNA (siRNA). NQO1 siRNA (a pool of 3 target-specific 19-25 nt siRNAs, Santa Cruz Biotechnology, Inc., (Dallas, TX, USA) and scrambled siRNAs were introduced into cells using the X-tremeGENE siRNA transfection reagent (Roche, Basel, Switzerland) according to the manufacturer's instructions with 80 pmol of NQO1 siRNA and 10 μl of transfection reagent per well of a six-well plate for T98G cells.

Compound | histological features (brain, heart, lung, liver, spleen, kidney; H&E) ([1]; versus control) | average body weights ([1]; versus vehicle) | fluorescence signal in NQO1 expressing cancer cells (A549, H460 cells; 10 μM, 60 min) | cell permeability (A549, H460 cells; inferred from intracellular activation) | fluorescence in control (NQO1-negative) cells [2] | fluorescence after NQO1 gene transfection [3] | decrease in fluorescence after siRNA silencing of the hNQO1 gene (hNQO1 in T98G cells)
CC1=C(C)C(=O)C(C(C)(C)CC(=O)Nc2ccc(/C=C/C3=CC(=C(C#N)C#N)CC(C)(C)C3)cc2)=C(C)C1=O [NIR-ASM, (E)-N-(4-(2-(3-(dicyanomethylene)-5,5-dimethylcyclohex-1-en-1-yl)vinyl)phenyl)-3-methyl-3-(2,4,5-trimethyl-3,6-dioxocyclohexa-1,4-dien-1-yl)butanamide] | no significant differences | no remarkable changes | bright NIR fluorescence signal | confirm the cell permeability | No fluorescence | intense fluorescence | 
CC1=C(C)C(=O)C(C(C)(C)CC(=O)Oc2ccc(/C=C/C3=CC(=C(C#N)C#N)CC(C)(C)C3)cc2)=C(C)C1=O [NQ-DCP] |  |  |  |  |  |  | 90-95%
